Here are results for one compound from patent US12691101B2, “Compound and method for preventing or treating of respiratory diseases comprising the same as an active ingredient” (YONSEI UNIVERSITY, UNIVERSITY - INDUSTRY FOUNDATION (UIF), priority 2019, dated 2026).

One assay deals with T1, SLC26A3 (Homo sapiens, UniProt P40879).
T1 construct: expressed in transfected cells; host or cells: CHO-K1
As to the kind of experiment: Cl^−/HCO3^− exchange in CHO-K1 cells expressing SLC26A3. Type of assay: cell-based. The note with it: weakly inhibited. On the procedure:
(A) The inhibition of mouse pendrin (mPDS)-mediated Cl^−/I^− exchange activity by F56 was measured in CHO-K1 cells (mean±S.E., n=5). The indicated concentration of F56 was pretreated for 10 minutes. (B) Summary of dose-response for inhibition of the human pendrin (hPDS)-mediated (closed circle, FIG. (a), C) and mPDS-mediated (open circle) Cl^−/I^− exchange activity. (C-F) Representative traces of intracellular pH in CHO-K1 cells expressing SLC26A3, SLC26A6, SLC26A7 and SLC26A9 were shown. The application of Cl^− free solution induced intracellular alkalization by Cl^−/HCO3^− exchange. The indicated concentration of F56 was pretreated for 10 minutes. (G) the effect of F56 (100 μM) on the CFTR chloride channel activity was measured in FRT cells expressing human CFTR. The CFTR current was activated by 20 μM forskolin and was inhibited by 10 μM CFTRinh-172. (H) The effect of F56 (100 μM) on the AN01 chloride channel activity was measured in FRT cells expressing human AN01. Before 10 minutes prior to AN01 activation by 100 μM ATP, F56 was added. (Right) Peak current summary (mean±S.E., n=3). (I) The effect of F56 on the hERG (Kv11.1) potassium channel activity was measured in HEK293T cells expressing human Kv11.1 (mean±S.E., n=4). […] (J) The effect of F56 on the 5-HT2A channel activity was measured in FRT cells expressing human 5-HT2A (mean±S.E., n=4). […]

Another assay relates to pendrin. As to the kind of experiment: Protein expression measurement in IL-4-treated HNE cells, pendrin. Format: cell-based, human. The following applies: long-term treatment. On the procedure:
CHO-K1 and HNE cells were lysed with a cytolytic buffer (50 mM Tris-HCl, pH 7.4, 1% Nonidet P-40, 0.25% sodium deoxycholate, 150 mM NaCl, 1 mM EDTA, 1 mM Na3VO4, and protease inhibiting mixture). The total cell lysates were under centrifugation at 15,000×g for 10 minutes at 4° C. to remove cellular debris and the same amount (50 μg protein or 5 μg protein/lane) of supernatant protein was isolated on 4-12% Tris-glycine precast gel (KOMA BIOTECH, Seoul, Korea) and transferred to PVDF membrane (Millipore, Billerica, MA, USA). The membrane was blocked with 5% fat-free skim milk in TBS containing 0.1% Tween 20 (TBST) or 5% bovine serum albumin in TBS at a room temperature for 1 hour. Then, the membrane was cultured at 4° C. overnight with a primary antibody against pendrin (sc-50346; Santa Cruz Biotechnology, Santa Cruz, CA, USA), NF-κB p65 (4764S; Cell Signaling Technology, Danvers, MA, USA), p-NF-κB p65 (3033S; Cell Signaling Technology), IkBα (9242S; Cell Signaling Technology), p-IkBα (9141S; Cell Signaling Technology), β-actin (sc-47778; Santa Cruz Biotechnology), or AN01 (ab64085; Abeam). After washing with 0.05% Tween 20 (TBST) in PBS, the blot was additionally cultured with a secondary antibody (Cell Signaling Technology, Danvers, MA) at a room temperature for 60 minutes. […]

In the next assay the test system is NF-κ. As to the kind of experiment: IVIS lung fluorescence in LPS-treated NF-κ reporter/SPC-Cre-ERT2 mice. Format: in vivo, mouse. The note with it: 10 mg/kg i.p., 6 hours after LPS. An excerpt: From Orient Bio (Sungnam, Republic of Korea), 8-10-week-old wild-type male C57BL/6J mice having a body weight of 20-24 g were purchased. Food and water were provided to all the animals, and the similar optical cycle of day and night was applied. Transfected NF-κ reporter/SPC-Cre-ERT2 mice were used for IVIS in the present invention. Briefly, NF-κ reporter mice contain ROSA26 lox-STOP-lox-cassette inserted between a promoter and NF-κ gene. In general, a stop gene is positioned between loxP and loxP, and NF-κ is not expressed. NF-κ reporter/SPC-Cre-ERT2 mice were obtained by raising ROSA26R mice to surfactant protein C(SPC)-Cre-ERT2 mice. The Cre-ERT2 recombinase activity in these transfected mice was induced by tamoxifen. These NF-κ reporter/SPC-Cre-ERT2 mice express NF-κ activity in the alveolar epithelium by one of dTomato fluorescence or luciferase in presence of tamoxifen. […]
Imaging of living animals and organs was performed using IVIS […] imaging system Caliper Life Sciences, Preston Brook Runcorn, UK). […] Fluorescence excite light was provided by a halogen lamp combined with an appropriate excite filter. […] The fluorescence imaging was obtained with an excitation wavelength of 554 nm and an emission wavelength of 581 nm (dTomato). […] In Living Image software (version 3.2, Caliper Life Sciences), using an area of interest tool, fluorescence was quantified.

T1 sequence (P40879 whole entry, species assumed): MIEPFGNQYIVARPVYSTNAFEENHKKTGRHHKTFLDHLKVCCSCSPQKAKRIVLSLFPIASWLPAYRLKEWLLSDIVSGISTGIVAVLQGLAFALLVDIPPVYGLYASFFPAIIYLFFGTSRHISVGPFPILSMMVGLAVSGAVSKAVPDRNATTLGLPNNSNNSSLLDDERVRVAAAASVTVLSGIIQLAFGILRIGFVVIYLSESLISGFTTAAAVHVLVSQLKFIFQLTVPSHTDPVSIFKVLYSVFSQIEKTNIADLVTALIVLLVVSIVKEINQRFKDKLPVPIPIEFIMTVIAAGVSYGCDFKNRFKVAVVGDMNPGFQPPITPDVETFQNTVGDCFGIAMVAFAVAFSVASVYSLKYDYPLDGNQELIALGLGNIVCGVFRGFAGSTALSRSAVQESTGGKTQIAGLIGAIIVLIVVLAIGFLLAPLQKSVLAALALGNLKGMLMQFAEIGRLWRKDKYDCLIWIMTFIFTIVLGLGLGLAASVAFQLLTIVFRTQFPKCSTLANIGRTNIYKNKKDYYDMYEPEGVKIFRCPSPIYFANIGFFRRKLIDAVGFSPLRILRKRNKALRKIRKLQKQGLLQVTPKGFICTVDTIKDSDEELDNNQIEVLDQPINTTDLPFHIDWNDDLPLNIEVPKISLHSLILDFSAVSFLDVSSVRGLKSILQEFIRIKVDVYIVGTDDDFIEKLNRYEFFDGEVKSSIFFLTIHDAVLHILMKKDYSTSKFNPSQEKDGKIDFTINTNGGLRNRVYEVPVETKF

As usually defined, the IC50 is the concentration that inhibits the measured activity by half. Consider `CC(C)(C)c1ccc(C2=NC(=Cc3cccs3)C(=O)O2)cc1` [F56, 2-(4-(tert-butyl)phenyl)-4-(thiophen-2-ylmethylene)oxazol-5(4H)-one], for which the concentration for half-maximal inhibition (IC50) against SLC26A3 was greater than 100 µM. For the same compound, in the assay on pendrin, the “pendrin protein expression level” value is listed as “strongly reduced”. Further, the “fluorescence of the excised lung (NF-κ activation)” value in the assay with NF-κ was “inhibited”.
